# Test results taken from US12636372B2, “Immolative cell-penetrating complexes for nucleic acid delivery to the lung” (The Board of Trustees of the Leland Stanford Junior …, priority 2019, dated 2026).
# Experiment: In vitro toxicity assay: MTT proliferation assay
# Assay type: cell-based
# Conditions: 3 day incubation
# From the text: FIGS. 3A-3F show the in vitro reporter and toxicity assays.
compound,measurement,value
NCCCC[C@H](NCCO)C(=O)O [hydroxyethyl lysine],Cellular viability,not affected
